The target in assay [1] is USP1-UAF1 (Homo sapiens, UniProt O94782). In words: Ubiquitin Rhodamine assay of USP1-UAF1 activity. It is filed as biochemical. As for the experimental part: Certain compounds of the disclosure were assessed for USP1-UAF1 activity in a Ubiquitin Rhodamine assay as described in Biology Example 1.
Assay [2] concerns MDA-MB-436. In words: Viability assay, BRCA1 mutant cell line MDA-MB-436. It is filed as cell-based. The following applies: Homo sapiens, MDA-MB-436, viability, BRCA1 mutant MDA-MB-436; read-out: MDA-MB-436 rel IC50. An excerpt: (§1) Table 1 also indicates IC50 values in a viability assay for a non-isogenic pair of BRCA1 mutant (column 5-MDA-MB-436) and BRCA1 WT (column 6—HCC1954) cell lines. These values indicate the effect of treatment with compound on cell survival.

The test system of assay [3] is HCC1954. In words: Viability assay, BRCA1 WT cell line HCC1954. It is filed as cell-based. The following applies: Homo sapiens, HCC1954, viability, read-out: HCC1954 rel IC50.
Excerpt: as §1

Assay [4] deals with monoubiquitinated PCNA. In words: AlphaLISA assay measuring monoubiquitinated PCNA in MDA-MB-436. It is filed as cell-based. The following applies: Homo sapiens, MDA-MB-436, monoubiquitinated PCNA, read-out: Alpha Lisa IC50. An excerpt:
Table 1 also indicates IC50 values for exemplary compounds in an AlphaLISA assay measuring monoubiquitinated PCNA in a BRCA1 mutant cell line (MDA-MB-436; column 7).
A general note: Bead proximity is the source of the signal in Alpha formats.

Molecules are shown by their SMILES. Where only a bound is given, the exact number is not on record here.

Sequence of USP1-UAF1 (O94782 whole entry): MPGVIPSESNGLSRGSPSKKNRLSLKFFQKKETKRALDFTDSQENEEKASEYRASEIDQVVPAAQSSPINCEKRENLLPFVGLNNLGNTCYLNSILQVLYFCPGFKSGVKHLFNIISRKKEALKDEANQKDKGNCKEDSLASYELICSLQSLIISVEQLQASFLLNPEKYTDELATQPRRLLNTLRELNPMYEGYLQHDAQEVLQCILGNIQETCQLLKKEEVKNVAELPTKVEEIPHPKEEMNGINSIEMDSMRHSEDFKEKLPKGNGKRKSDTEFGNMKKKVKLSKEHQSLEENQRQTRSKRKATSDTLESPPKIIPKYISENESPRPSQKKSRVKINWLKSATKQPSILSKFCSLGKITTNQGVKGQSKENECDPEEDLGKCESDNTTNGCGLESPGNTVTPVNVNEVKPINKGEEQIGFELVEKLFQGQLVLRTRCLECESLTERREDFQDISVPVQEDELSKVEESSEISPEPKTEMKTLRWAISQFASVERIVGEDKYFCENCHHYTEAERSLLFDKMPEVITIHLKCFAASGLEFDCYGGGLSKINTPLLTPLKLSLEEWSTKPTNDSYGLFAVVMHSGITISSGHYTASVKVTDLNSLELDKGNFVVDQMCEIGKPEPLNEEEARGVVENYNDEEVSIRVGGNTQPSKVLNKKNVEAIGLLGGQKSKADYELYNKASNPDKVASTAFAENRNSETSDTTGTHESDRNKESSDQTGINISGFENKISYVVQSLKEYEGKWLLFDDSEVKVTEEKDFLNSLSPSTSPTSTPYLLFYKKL
Sequence of USP1-UAF1 (Q8TAF3 whole entry partner): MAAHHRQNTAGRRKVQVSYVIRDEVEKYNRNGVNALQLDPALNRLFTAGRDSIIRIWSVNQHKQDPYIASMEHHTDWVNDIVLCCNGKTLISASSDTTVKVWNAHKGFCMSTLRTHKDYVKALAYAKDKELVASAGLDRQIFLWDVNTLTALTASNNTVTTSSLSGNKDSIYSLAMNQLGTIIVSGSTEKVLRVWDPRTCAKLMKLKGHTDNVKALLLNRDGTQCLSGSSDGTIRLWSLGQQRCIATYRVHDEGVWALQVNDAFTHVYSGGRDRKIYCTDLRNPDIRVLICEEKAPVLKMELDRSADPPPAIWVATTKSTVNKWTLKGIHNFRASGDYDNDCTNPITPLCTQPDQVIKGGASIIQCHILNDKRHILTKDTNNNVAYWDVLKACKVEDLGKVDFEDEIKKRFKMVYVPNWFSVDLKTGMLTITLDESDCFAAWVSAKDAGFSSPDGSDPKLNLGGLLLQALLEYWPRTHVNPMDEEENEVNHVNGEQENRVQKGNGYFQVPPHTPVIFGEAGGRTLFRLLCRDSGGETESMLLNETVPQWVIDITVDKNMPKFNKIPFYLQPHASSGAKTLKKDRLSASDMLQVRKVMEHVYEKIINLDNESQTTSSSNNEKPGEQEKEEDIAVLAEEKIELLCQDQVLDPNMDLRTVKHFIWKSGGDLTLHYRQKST

The IC50 is the point on the concentration scale where inhibition reaches its midpoint. In the case of `CC(C)c1ccccc1-c1nc(C2CC2)c2c(n1)n(Cc1ccc(-c3nc(C(F)(F)F)cn3C)cc1)c(=N)n2C` [Example A-23, 6-cyclopropyl-2-(2-isopropylphenyl)-7-methyl-9-(4-(1-methyl-4-(trifluoromethyl)-1H-imidazol-2-yl)benzyl)-7,9-dihydro-8H-purin-8-imine], the IC50 in assay [1] was less than 30 nM; in assay [2], 250 to 10000 nM; in assay [3], 250 to 10000 nM; in assay [4], 250 to 10000 nM.

As to `CC(C)c1ccccc1-c1ncc2c(n1)n(Cc1ccc(-n3ccc(C(F)(F)F)n3)cc1)c(=N)n2C` [Example A-24, 2-(2-isopropylphenyl)-7-methyl-9-(4-(3-(trifluoromethyl)-1H-pyrazol-1-yl)benzyl)-7,9-dihydro-8H-purin-8-imine], the IC50 in assay [1] lay within 30 to 100 nM; in assay [2], 250 to 10000 nM; in assay [3] it was 250 to 10000 nM; in assay [4], 250 to 10000 nM.

In the case of `CC(C)c1ccccc1-c1ncc2c(n1)n(Cc1ccc(-c3nc(C(F)(F)F)cs3)cc1)c(=N)n2C` [Example A-25, 2-(2-isopropylphenyl)-7-methyl-9-(4-(4-(trifluoromethyl)thiazol-2-yl)benzyl)-7,9-dihydro-8H-purin-8-imine], the IC50 was in the range of 30 to 100 nM in assay [1], 250 to 10000 nM in assay [2], 250 to 10000 nM in assay [3] and 250 to 10000 nM in assay [4].

Regarding `Cc1nc(-c2cc(F)ccc2C(C)C)nc2c1n(C)c(=N)n2Cc1ccc(-c2nc(Cl)cn2C)cc1` [Example A-27, 9-(4-(4-chloro-1-methyl-1H-imidazol-2-yl)benzyl)-2-(5-fluoro-2-isopropylphenyl)-6,7-dimethyl-7,9-dihydro-8H-purin-8-imine], the half-maximal inhibitory concentration (IC50) in assay [1] is less than 30 nM; in assay [2], 250 to 10000 nM; in assay [3] it was 250 to 10000 nM; in assay [4] it was 100 to 250 nM.

In the case of `Cc1nc(-c2cccc(F)c2C(C)C)nc2c1n(C)c(=N)n2Cc1ccc(-c2nc(Cl)cn2C)cc1` [Example A-28, 9-(4-(4-chloro-1-methyl-1H-imidazol-2-yl)benzyl)-2-(3-fluoro-2-isopropylphenyl)-6,7-dimethyl-7,9-dihydro-8H-purin-8-imine], the IC50 in assay [1] is less than 30 nM; in assay [2], less than 100 nM; in assay [3] it was not below 10000 nM; in assay [4], less than 100 nM.

Consider `CC(C)c1ccccc1-c1ncc2c(n1)n(Cc1ccc(-c3nc(C(F)(F)F)cn3C)cc1F)c(=N)n2C` [Example A-29, 9-(2-fluoro-4-(1-methyl-4-(trifluoromethyl)-1H-imidazol-2-yl)benzyl)-2-(2-isopropylphenyl)-7-methyl-7,9-dihydro-8H-purin-8-imine], for which the IC50 in assay [1] is less than 30 nM; in assay [2] it was less than 100 nM; in assay [3], not below 10000 nM; in assay [4], less than 100 nM.

As for `C=C(C)c1c(F)cccc1-c1nc(C)c2c(n1)n(Cc1ccc(-c3nc(Cl)cn3C)cc1)c(=N)n2C` [Example A-30, 9-(4-(4-chloro-1-methyl-1H-imidazol-2-yl)benzyl)-2-(3-fluoro-2-(prop-1-en-2-yl)phenyl)-6,7-dimethyl-7,9-dihydro-8H-purin-8-imine], the concentration for half-maximal inhibition (IC50) in assay [1] was less than 30 nM; in assay [2], less than 100 nM; in assay [3], 250 to 10000 nM; in assay [4], less than 100 nM.

As to `C=C(C)c1c(F)cccc1-c1nc(C)c2c(n1)n(Cc1ccc(-c3nc(C(F)(F)F)cn3C)cc1)c(=N)n2C` [Example A-31, 2-(3-fluoro-2-(prop-1-en-2-yl)phenyl)-6,7-dimethyl-9-(4-(1-methyl-4-(trifluoromethyl)-1H-imidazol-2-yl)benzyl)-7,9-dihydro-8H-purin-8-imine], the concentration for half-maximal inhibition (IC50) in assay [1] is less than 30 nM; in assay [2], less than 100 nM; in assay [3] it was 250 to 10000 nM; in assay [4], less than 100 nM.

Turning to `CC(C)c1ccccc1-c1ncc2c(n1)n(Cc1ccc(-c3nc(C(F)(F)F)cn3C)cc1)c(=N)n2C1CCC1` [Example A-34, 7-cyclobutyl-2-(2-isopropylphenyl)-9-(4-(1-methyl-4-(trifluoromethyl)-1H-imidazol-2-yl)benzyl)-7,9-dihydro-8H-purin-8-imine], the IC50 in assay [1] was less than 30 nM; in assay [2], 100 to 250 nM; in assay [3], 250 to 10000 nM; in assay [4] it was less than 100 nM.

On to `CC(C)c1ccccc1-c1nc(-c2ccccn2)c2c(n1)n(Cc1ccc(-c3nc(C(F)(F)F)cn3C)cc1)c(=N)n2C` [Example A-35, 2-(2-isopropylphenyl)-7-methyl-9-(4-(1-methyl-4-(trifluoromethyl)-1H-imidazol-2-yl)benzyl)-6-(pyridin-2-yl)-7,9-dihydro-8H-purin-8-imine], for which the IC50 was 30 to 100 nM in assay [1], 250 to 10000 nM in assay [2], 250 to 10000 nM in assay [3] and 100 to 250 nM in assay [4].

Regarding `Cc1nc(-c2ccccc2Cl)nc2c1n(C)c(=N)n2Cc1ccc(-c2nc(Cl)cn2C)cc1` [Example A-36, 9-(4-(4-chloro-1-methyl-1H-imidazol-2-yl)benzyl)-2-(2-chlorophenyl)-6,7-dimethyl-7,9-dihydro-8H-purin-8-imine], the concentration for half-maximal inhibition (IC50) is 100 to 10000 nM in assay [1], 250 to 10000 nM in assay [2], not below 10000 nM in assay [3] and 250 to 10000 nM in assay [4].

`COc1cc(Cn2c(=N)n(C)c3cnc(-c4ccccc4C(C)C)nc32)ccc1-c1nc(C(F)(F)F)cn1C` [Example A-37, 2-(2-isopropylphenyl)-9-(3-methoxy-4-(1-methyl-4-(trifluoromethyl)-1H-imidazol-2-yl)benzyl)-7-methyl-7,9-dihydro-8H-purin-8-imine]: the 50% inhibitory concentration (IC50) in assay [1] was less than 30 nM; in assay [2] it was 250 to 10000 nM; in assay [3] it was not below 10000 nM; in assay [4], 100 to 250 nM.

As for `Cc1nc(-c2ccccc2C(C)C)nc2c1n(C)c(=N)n2Cc1ccc(-c2nc(Cl)cn2C)cc1` [Example A-38, 9-(4-(4-chloro-1-methyl-1H-imidazol-2-yl)benzyl)-2-(2-isopropylphenyl)-6,7-dimethyl-7,9-dihydro-8H-purin-8-imine], the IC50 is less than 30 nM in assay [1], less than 100 nM in assay [2], 250 to 10000 nM in assay [3] and less than 100 nM in assay [4].

With `CC(C)c1ccccc1-c1nc(C(N)=O)c2c(n1)n(Cc1ccc(-c3nc(C(F)(F)F)cn3C)cc1)c(=N)n2C` [Example A-41, 8-imino-2-(2-isopropylphenyl)-7-methyl-9-(4-(1-methyl-4-(trifluoromethyl)-1H-imidazol-2-yl)benzyl)-8,9-dihydro-7H-purine-6-carboxamide], the IC50 in assay [1] is 30 to 100 nM; in assay [2] it was 250 to 10000 nM; in assay [3], 250 to 10000 nM; in assay [4] it was 250 to 10000 nM.

As to `C=C(C)c1ccc(F)cc1-c1nc(C)c2c(n1)n(Cc1ccc(-c3nc(C(F)(F)F)cn3C)cc1)c(=N)n2C` [Example A-42, 2-(5-fluoro-2-(prop-1-en-2-yl)phenyl)-6,7-dimethyl-9-(4-(1-methyl-4-(trifluoromethyl)-1H-imidazol-2-yl)benzyl)-7,9-dihydro-8H-purin-8-imine], the half-maximal inhibitory concentration (IC50) was 30 to 100 nM in assay [1], 250 to 10000 nM in assay [2], 250 to 10000 nM in assay [3] and 100 to 250 nM in assay [4].

Source of the values: patent US20240059689A1, “PURINE DERIVATIVES AS ANTICANCER AGENTS” (Tango Therapeutics, Inc., priority 2021, published 2024).
